Source: ChEMBL document CHEMBL1201862, “PubChem BioAssay data set” (2004)
The source made the active and inactive calls.

Key:
Protein RecA = biological target: T1, Protein RecA (Mycobacterium tuberculosis, UniProt P9WHJ3); test: Fluorescence Cell-Free Homogeneous Dose Retest to Identify Inhibitors of RecA-Intein Splicing Activity. [Related pubchem assays (depositor defined):AID2097, AID2223, AID489010, AID492950]; assay type: functional
T1 sequence (P9WHJ3 whole entry): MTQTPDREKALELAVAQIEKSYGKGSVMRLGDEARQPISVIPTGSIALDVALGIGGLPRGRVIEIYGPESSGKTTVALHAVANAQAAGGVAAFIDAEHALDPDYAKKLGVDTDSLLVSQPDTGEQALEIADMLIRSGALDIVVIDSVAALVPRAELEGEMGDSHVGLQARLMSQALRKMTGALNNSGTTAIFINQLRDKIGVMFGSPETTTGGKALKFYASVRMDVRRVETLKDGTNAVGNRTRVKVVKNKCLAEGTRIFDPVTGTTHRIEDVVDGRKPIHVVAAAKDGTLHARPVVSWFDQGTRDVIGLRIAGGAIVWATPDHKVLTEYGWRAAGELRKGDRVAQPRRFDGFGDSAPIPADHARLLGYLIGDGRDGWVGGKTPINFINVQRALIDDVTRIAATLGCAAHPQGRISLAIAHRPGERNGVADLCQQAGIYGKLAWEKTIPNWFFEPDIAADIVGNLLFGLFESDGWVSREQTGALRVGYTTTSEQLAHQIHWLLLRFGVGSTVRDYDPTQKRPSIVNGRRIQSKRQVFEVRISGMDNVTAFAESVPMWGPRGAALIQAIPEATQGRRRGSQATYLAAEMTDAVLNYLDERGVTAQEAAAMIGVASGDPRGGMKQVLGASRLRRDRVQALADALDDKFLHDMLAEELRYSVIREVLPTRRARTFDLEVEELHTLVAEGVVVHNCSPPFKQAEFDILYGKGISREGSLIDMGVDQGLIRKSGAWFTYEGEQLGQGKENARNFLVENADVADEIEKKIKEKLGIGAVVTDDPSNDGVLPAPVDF

[1] = Luminescent dose response cell-based high throughput screening assay for inhibitors of the Janus kinase 2 mutant JAK2V617F. [Related pubchem assays: 1446 (Primary screen.), 1521 (Confirmation assay.), 1486 (Counter screen.)]; assay type: functional
[2] = biological target: T2, Replicative DNA helicase DnaB (Mycobacterium tuberculosis, UniProt P9WMR3); test: DnaB intein splicing inhibitors, dose response, biochemical, cell-free fluorescence (AID 449749); assay type: functional
T2 sequence (P9WMR3 whole entry): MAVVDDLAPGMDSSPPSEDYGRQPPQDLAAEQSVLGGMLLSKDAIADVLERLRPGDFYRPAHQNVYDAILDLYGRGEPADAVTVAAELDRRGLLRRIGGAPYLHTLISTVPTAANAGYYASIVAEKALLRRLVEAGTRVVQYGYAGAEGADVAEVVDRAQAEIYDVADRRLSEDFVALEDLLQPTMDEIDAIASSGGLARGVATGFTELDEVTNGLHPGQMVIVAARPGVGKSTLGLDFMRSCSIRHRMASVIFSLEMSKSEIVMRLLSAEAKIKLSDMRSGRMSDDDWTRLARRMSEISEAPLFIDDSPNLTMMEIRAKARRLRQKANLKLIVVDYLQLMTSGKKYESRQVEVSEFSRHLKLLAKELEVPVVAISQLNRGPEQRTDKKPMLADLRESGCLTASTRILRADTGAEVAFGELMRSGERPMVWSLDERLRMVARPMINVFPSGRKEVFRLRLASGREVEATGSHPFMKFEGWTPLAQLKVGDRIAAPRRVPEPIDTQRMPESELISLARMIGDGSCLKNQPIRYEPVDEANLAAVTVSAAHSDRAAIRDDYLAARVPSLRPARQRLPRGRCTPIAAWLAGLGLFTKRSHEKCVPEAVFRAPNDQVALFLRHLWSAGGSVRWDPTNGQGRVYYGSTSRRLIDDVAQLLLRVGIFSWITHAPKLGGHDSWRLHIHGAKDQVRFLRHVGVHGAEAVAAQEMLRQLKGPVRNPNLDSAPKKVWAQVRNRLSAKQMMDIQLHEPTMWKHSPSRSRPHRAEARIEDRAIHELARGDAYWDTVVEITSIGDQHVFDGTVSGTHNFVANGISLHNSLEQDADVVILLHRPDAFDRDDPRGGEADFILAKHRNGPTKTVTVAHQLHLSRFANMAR

Paired box protein Pax-8 = Paired box protein Pax-8 (Homo sapiens, UniProt Q06710); test: inhibitors of PAX8-driven TPO luciferase reporter, dose response, RMG-I cells, cherry-pick (AID 687027); assay type: functional, cell-based;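 note: luciferase reporter driven by Pax8 target thyroperoxidase promoter measured by SteadyGlo luminescence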
Paired box protein Pax-8, sequence (Q06710 whole entry): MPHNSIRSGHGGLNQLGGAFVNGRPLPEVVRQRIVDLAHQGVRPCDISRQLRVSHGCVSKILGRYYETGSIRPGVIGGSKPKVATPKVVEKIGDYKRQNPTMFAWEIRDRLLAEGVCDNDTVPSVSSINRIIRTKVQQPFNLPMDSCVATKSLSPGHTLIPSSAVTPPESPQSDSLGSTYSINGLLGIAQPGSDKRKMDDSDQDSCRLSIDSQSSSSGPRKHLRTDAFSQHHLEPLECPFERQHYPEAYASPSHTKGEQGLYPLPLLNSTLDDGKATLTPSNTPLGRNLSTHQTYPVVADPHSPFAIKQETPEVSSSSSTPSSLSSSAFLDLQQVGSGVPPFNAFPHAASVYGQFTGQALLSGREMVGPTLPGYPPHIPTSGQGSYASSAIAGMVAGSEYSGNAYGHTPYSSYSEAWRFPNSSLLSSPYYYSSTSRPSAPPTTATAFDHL

[3] = non-specific cell cytotoxicity, dose response, cytotoxicity control for PAX8 inhibitor project, plate reader, dry powder samples (AID 743021); assay type: functional, cell-based
Fatty acid synthase [4] = biological target: T3, Fatty acid synthase (Homo sapiens, UniProt P49327); test: FAS thioesterase domain inhibitors, dose response, biochemical, kinetic fluorescence intensity (AID 624326); assay type: functional;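 note: rate of fluorescence rise from hydrolysis of a fluorogenic O-methyl fluorescein ester substrate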
T3 sequence (P49327 whole entry, the tested form may be a part): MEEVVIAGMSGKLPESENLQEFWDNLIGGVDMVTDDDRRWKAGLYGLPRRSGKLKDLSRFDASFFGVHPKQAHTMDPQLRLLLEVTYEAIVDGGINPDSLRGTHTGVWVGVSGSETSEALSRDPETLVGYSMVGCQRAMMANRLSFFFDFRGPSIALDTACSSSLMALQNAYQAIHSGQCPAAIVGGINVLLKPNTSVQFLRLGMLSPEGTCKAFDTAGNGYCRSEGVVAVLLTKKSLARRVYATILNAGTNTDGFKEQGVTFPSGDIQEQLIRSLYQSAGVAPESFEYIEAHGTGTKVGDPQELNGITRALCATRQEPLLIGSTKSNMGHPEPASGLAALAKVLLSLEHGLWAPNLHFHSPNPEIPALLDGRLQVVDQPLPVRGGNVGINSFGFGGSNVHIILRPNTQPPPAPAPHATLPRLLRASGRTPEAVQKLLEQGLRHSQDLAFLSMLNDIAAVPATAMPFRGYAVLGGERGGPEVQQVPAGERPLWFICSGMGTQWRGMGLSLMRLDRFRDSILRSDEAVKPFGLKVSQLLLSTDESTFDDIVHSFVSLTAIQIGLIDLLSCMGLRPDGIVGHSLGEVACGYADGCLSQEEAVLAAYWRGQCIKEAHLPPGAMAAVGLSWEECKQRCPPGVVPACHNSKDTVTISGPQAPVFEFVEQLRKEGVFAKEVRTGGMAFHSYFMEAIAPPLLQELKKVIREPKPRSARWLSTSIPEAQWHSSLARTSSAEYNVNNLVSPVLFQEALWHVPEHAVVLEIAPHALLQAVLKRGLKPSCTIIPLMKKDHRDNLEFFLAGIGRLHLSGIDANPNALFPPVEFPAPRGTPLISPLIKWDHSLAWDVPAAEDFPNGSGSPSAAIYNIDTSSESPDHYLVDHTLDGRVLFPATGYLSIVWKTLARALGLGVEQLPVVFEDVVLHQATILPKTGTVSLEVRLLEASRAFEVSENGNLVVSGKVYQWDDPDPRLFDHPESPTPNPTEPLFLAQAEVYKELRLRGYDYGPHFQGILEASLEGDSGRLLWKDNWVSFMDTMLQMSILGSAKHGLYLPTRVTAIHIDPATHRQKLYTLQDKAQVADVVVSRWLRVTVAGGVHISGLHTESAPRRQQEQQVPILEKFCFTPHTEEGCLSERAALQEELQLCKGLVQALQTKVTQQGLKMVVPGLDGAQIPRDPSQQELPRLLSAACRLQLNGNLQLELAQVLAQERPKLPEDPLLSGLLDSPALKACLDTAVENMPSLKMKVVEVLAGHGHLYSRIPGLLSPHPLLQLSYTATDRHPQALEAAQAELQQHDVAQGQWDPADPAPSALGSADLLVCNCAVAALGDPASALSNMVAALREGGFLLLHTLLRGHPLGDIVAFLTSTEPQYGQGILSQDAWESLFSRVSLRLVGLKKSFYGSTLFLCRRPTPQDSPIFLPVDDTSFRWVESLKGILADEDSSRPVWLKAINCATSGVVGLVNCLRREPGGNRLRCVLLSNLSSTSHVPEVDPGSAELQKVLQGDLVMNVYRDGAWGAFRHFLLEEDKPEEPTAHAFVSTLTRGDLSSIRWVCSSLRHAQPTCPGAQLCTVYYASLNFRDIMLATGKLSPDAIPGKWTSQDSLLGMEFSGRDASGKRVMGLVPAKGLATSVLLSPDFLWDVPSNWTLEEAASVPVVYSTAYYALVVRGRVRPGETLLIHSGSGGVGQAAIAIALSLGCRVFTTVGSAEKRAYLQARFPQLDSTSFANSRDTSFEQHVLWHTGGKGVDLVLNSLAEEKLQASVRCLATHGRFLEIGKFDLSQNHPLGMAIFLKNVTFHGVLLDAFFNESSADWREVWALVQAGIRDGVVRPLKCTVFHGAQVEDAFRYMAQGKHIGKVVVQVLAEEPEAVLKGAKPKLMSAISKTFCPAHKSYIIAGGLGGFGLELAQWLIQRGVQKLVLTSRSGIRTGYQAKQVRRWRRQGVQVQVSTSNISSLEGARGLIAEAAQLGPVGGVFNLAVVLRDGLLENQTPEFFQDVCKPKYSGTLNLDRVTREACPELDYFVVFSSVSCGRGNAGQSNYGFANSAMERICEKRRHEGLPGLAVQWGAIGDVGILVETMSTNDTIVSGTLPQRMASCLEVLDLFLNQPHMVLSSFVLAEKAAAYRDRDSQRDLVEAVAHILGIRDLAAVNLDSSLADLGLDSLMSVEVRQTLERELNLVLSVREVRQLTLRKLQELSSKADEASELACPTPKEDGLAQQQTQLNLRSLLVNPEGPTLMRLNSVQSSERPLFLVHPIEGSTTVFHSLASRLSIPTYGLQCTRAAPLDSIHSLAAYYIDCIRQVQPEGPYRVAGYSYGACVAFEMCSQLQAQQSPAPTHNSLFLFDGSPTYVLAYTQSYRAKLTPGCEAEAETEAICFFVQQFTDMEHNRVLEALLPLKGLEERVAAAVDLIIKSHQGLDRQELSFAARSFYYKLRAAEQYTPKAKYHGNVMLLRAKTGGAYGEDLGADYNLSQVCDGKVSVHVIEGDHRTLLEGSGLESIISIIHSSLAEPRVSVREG

Fatty acid synthase [5] = biological target: T3, Fatty acid synthase; test: FAS thioesterase domain inhibitors, dose response, biochemical, endpoint fluorescence intensity, uHTS hits (AID 624327); assay type: functional;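 note: fluorescence from hydrolysis of an O-methyl fluorescein acyl ester substrate by the enzyme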
[6] = Late stage counterscreen results from the probe development effort to identify activators of signal transducer and activator of transcription 1 (STAT1): luminescence-based cell-based dose response assay to identify cytotoxic compounds.; assay type: functional
Estrogen receptor = biological target: T4, Estrogen receptor (Homo sapiens, UniProt P03372);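 note: potency for inhibiting coactivator peptide recruitment to the receptor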
T4 sequence (P03372 whole entry): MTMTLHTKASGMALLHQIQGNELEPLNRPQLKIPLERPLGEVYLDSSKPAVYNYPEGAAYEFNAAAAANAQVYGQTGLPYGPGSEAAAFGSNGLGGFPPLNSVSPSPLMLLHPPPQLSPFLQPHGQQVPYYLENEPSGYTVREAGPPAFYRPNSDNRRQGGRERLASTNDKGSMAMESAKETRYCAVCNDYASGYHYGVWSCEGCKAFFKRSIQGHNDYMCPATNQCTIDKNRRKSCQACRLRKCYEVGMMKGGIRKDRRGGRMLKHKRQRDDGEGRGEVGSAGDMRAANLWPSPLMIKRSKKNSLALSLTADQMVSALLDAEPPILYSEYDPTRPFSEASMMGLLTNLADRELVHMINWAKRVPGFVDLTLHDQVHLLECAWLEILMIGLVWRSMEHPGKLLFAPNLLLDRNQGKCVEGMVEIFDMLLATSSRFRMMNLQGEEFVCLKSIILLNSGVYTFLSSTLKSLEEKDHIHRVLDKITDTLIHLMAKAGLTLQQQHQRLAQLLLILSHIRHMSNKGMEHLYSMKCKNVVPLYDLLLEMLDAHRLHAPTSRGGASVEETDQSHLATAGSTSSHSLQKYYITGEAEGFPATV

BJ [7] = test: cytotoxicity toward BJ-TERT-LT-ST fibroblasts, dose response, cell-based, RAS-independent, luminescence (AID 1935); assay type: functional; settings: Homo sapiens;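 note: BJ fibroblasts immortalized with TERT plus LT and ST oncogenes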
[8] = cytotoxicity toward NIH3T3 fibroblasts, dose response, counter-screen, cell-based, ATP luminescence, mouse fibroblasts (AID 2010); assay type: functional;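 note: cells exposed to compound for about 90 hours before reading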
BJ [9] = test: cytotoxicity toward BJ-TERT fibroblasts, dose response, cell-based, RAS-independent, luminescence (AID 1933); assay type: functional; settings: Homo sapiens
[10] = biological target: T5, Heat shock factor protein 1 (Mus musculus, UniProt P38532); test: inhibition of MG132-induced HSE-luciferase signal, confirmation, cell-based, NIH3T3, luminescence, dose retest (AID 2382); assay type: functional;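 note: NIH3T3 fibroblasts with HSF1-driven luciferase reporter stressed by proteasome inhibitor MG132; luminescence from HSF1-driven luciferase expression after 8 hours of MG132 stress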
T5 sequence (P38532 whole entry): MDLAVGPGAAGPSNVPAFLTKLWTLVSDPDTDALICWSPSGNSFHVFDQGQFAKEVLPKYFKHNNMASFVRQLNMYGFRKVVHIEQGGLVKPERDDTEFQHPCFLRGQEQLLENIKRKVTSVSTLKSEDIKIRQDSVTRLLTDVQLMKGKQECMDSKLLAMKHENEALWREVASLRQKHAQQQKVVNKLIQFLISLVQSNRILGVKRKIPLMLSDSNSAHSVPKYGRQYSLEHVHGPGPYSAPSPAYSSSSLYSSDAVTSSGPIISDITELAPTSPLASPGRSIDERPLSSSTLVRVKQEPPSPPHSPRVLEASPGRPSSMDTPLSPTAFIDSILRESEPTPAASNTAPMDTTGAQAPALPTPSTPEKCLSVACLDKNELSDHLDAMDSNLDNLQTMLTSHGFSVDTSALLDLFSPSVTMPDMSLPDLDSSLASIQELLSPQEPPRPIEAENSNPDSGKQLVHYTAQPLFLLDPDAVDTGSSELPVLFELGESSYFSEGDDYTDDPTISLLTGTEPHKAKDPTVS

BJ [11] = test: cells; assay type: functional, cell-based; settings: Homo sapiens
[12] = inhibitors of intracellular T. cruzi replication, confirmation, NIH3T3 host cells, beta-gal luminescence (AID 2044); assay type: functional, cell-based;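 note: intracellular parasites grown in NIH/3T3 mouse fibroblasts as host cells; luminescent beta-galactosidase reporter signal from transgenic T. cruzi replicating inside host cells; inhibitors lower the luminescence signal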
[13] = cytotoxicity toward DRD oncogenic fibroblasts, dose response, cell-based, non-viral oncogenic, luminescence (AID 1934); assay type: functional; settings: Homo sapiens

Row | Structure (SMILES) | EC50 (Protein RecA) | IC50 [1] | AC50 [2] | AC50 (Paired box protein Pax-8) | AC50 [3] | IC50 [6] | also measured
1 | CCCCCCN(C(=O)CCl)c1ccccc1 | 4.45 µM (inconclusive) | 1.19 µM (active) | 7.25 µM (active) | 6.26 µM (active) | 7.01 µM (active) | – | –
2 | CC(=O)NC(=S)Nc1sc2c(c1C#N)CCCCC2 | – | – | – | – | – | > 55.7 µM (not active) | IC50 (Fatty acid synthase [4]): 13.6 µM (active); IC50 (Fatty acid synthase [5]): 12.3 µM (active)
3 | COc1ccc2[nH]c3c(c2c1)CCn1c-3nc2ccccc2c1=O | – | – | – | – | – | > 55.7 µM (not active) | IC50 (Estrogen receptor): 17.2 µM (active)
4 | Cc1cccc(N(Cc2ccccc2)C(=O)CCl)c1 | 0.536 µM (active) | 0.649 µM (active) | 7.84 µM (active) | 3.46 µM (active) | 4.85 µM (active) | – | EC50 (BJ [7]): > 150 µM (inconclusive); EC50 [8]: 2.39 µM (active); EC50 (BJ [9]): 0.356 µM (inconclusive); EC50 [10]: 2.91 µM (active); EC50 (BJ [11]): 3.61 µM (active); EC50 [12]: 0.352 µM (active); EC50 [13]: 2.71 µM (inconclusive)
